Results taken from patent publication US8431563B2 (priority 2010, dated 2013).
Read-outs that look alike come from different tables or passages of the source.

Key:
[1] = target: T1, interaction between glucokinase (GK) and glucokinase regulatory protein (GKRP) (Homo sapiens, UniProt Q14397); assay: biochemical; assay type: binding
T1 sequence (Q14397 1-625): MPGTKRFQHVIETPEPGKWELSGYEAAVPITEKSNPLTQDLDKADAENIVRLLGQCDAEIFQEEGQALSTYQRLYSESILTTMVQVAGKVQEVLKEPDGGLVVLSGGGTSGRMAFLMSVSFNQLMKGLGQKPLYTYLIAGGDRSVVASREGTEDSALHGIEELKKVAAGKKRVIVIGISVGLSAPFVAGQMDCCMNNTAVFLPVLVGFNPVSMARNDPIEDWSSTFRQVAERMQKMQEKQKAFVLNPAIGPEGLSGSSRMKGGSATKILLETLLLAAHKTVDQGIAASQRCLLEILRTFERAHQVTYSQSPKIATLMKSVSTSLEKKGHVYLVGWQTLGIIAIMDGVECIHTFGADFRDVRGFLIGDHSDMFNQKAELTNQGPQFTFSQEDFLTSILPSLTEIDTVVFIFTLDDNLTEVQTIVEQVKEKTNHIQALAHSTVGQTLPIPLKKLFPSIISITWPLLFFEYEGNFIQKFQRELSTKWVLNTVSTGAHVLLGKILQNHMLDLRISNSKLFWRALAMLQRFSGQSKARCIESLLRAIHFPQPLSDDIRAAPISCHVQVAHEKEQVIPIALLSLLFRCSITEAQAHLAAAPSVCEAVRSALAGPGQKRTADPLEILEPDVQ
Experimental: GK-GKRP Binding Assay Protocol
This assay is used to directly measure the interaction between glucokinase (GK) and glucokinase regulatory protein (GKRP). Begin by preparing the following solutions. Assay Buffer: 20 mM Tris, pH 7.5/0.05% BSA/1 mM DTT/1 μM sorbitol-6-phosphate. […] Combine the following reagents in a white 96-well half area plate. Pipette 14 μl of the diluted avi-tagged GKRP into each well. Add 1 μl of compound to be tested and incubate at room temperature for 20 minutes. After 20 minutes, add 5 μl of assay buffer containing 6 nM GK-fluorescein. […] Incubate in a dark room for 2 hours at room temperature. After 2 hours read the plate using an Envision plate reader (Perkin Elmer, Waltham Mass.).

[2] = target: T2, GKRP (Glucokinase Regulatory Protein) with human His-hepatic GK (Homo sapiens, UniProt Q14397); assay: biochemical
T2 sequence (Q14397 1-625): T1 sequence (Q14397 1-625)
Experimental: GKRP LC MS/MS-2 Biochemical Assay
This assay is used to directly measure the formation of ^13C-glucose-6-phosphate from ^13C-glucose by LC MS/MS. Begin by preparing the following solutions: Compound Buffer (CB): 50 mM Tris, pH 7.5/4 mM MgCl2/6% DMSO/fresh 10 mM DTT from 1M frozen stock. Enzyme Buffer (EB): 50 mM Tris, pH 7.5/4 mM MgCl2/6% DMSO/fresh 0.1% BSA/fresh 0.01% Brij-35 (10% BSA and 1% Brij-35 stock). GK (Glucokinase) Working Stock (5×): Dilute human His-hepatic GK to 30 nM in EB buffer. […] After 30 minutes add 10 μl of GK Working Stock (5×). Re-seal the plate and incubate for another 30 minutes at room temperature while mixing. After the second 30 minutes, stop the reaction by the addition of 50 μl of 100% acetonitrile, seal, and mix for 5-10 minutes. Run 10 μl of this sample through the LC MS/MS (API 3200, Applied Biosystems, Carlsbad, Calif.).

[3] = avi-tagged GKRP, GK-fluorescein, AlphaScreen beads, read-out: GK-GKRP IC50 (Binding)
[4] = 13C-glucose-6-phosphate formation, 280 nM GKRP (10×), 30 nM GK (5×), read-out: GK-GKRP EC50 (LC MS/MS-2)
[5] = GK-GKRP EC50 (LC MS/MS-2), 13C-glucose-6-phosphate formation, 280 nM GKRP (10×), 30 nM GK (5×)

Row | SMILES | IC50 [1, 3] | EC50 [2, 4] | further results
1 | CCC1COCCN1C[C@H]1CN(S(=O)(=O)c2cccs2)CCN1c1ccc(C(C)(O)C(F)(F)F)cc1 (mixture of isomers) [Example 143, 2-(4-((2S)-2-((3-ethyl-4-morpholinyl)methyl)-4-(2-thiophenylsulfonyl)-1-piperazinyl)phenyl)-1,1,1-trifluoro-2-propanol] | 80 nM | 36 nM | –
2 | CC(O)(c1ccc(N2CCN(S(=O)(=O)c3cccs3)C[C@@H]2CN2CCC(=O)CC2)cc1)C(F)(F)F (mixture of isomers) [Example 144, 1-(((2S)-4-(2-thiophenylsulfonyl)-1-(4-(2,2,2-trifluoro-1-hydroxy-1-methylethyl)phenyl)-2-piperazinyl)methyl)-4-piperidinone] | 564 nM | 831 nM | –
3 | CC(O)(c1ccc(N2CCN(S(=O)(=O)c3cccs3)C[C@@H]2CN2CCC[C@H](O)C2)cc1)C(F)(F)F (mixture of isomers) [Example 145, (3S)-1-(((2S)-4-(2-thiophenylsulfonyl)-1-(4-(2,2,2-trifluoro-1-hydroxy-1-methylethyl)phenyl)-2-piperazinyl)methyl)-3-piperidinol] | 628 nM | 880 nM | –
4 | CC1(C)C(=O)NCCN1C[C@H]1CN(S(=O)(=O)c2cccs2)CCN1c1ccc(C(C)(O)C(F)(F)F)cc1 (mixture of isomers) [Example 180, 3,3-dimethyl-4-(((2S)-4-(2-thiophenylsulfonyl)-1-(4-(2,2,2-trifluoro-1-hydroxy-1-methylethyl)phenyl)-2-piperazinyl)methyl)-2-piperazinone] | 22 nM | 51 nM | –
5 | C[C@H]1C(=O)NCCN1C[C@H]1CN(S(=O)(=O)c2cccs2)CCN1c1ccc(C(C)(O)C(F)(F)F)cc1 (mixture of isomers) [Example 182, (3S)-3-methyl-4-(((2S)-4-(2-thiophenylsulfonyl)-1-(4-(2,2,2-trifluoro-1-hydroxy-1-methylethyl)phenyl)-2-piperazinyl)methyl)-2-piperazinone] | 46 nM | 69 nM | –
6 | CC1CNC(=O)CN1C[C@H]1CN(S(=O)(=O)c2cccs2)CCN1c1ccc(C(C)(O)C(F)(F)F)cc1 (mixture of isomers) [Example 183, 5-methyl-4-(((2S)-4-(2-thiophenylsulfonyl)-1-(4-(2,2,2-trifluoro-1-hydroxy-1-methylethyl)phenyl)-2-piperazinyl)methyl)-2-piperazinone] | 171 nM | 287 nM | –
7 | CC(O)(c1ccc(N2CCN(S(=O)(=O)c3cccs3)C[C@@H]2CSc2ccccc2)cc1)C(F)(F)F (mixture of isomers) [Example 186, 1,1,1-trifluoro-2-(4-((2R)-2-((phenylsulfanyl)methyl)-4-(2-thiophenylsulfonyl)-1-piperazinyl)phenyl)-2-propanol] | – | – | IC50 ([1]; read-out: GK-GKRP IC50 (Binding)): 14 nM; EC50 ([2]; read-out: GK-GKRP EC50 (LC MS/MS-2)): 24 nM
8 | CC(O)(c1ccc(N2CCN(S(=O)(=O)c3cccs3)C[C@@H]2CSc2cccc(F)c2)cc1)C(F)(F)F (mixture of isomers) [Example 188, 1,1,1-trifluoro-2-(4-((2R)-2-(((3-fluorophenyl)sulfanyl)methyl)-4-(2-thiophenylsulfonyl)-1-piperazinyl)phenyl)-2-propanol] | 112 nM | 43 nM | –
9 | CC(O)(c1ccc(N2CCN(S(=O)(=O)c3cccs3)C[C@@H]2CSc2ccc(F)cc2)cc1)C(F)(F)F (mixture of isomers) [Example 190, 1,1,1-trifluoro-2-(4-((2R)-2-(((4-fluorophenyl)sulfanyl)methyl)-4-(2-thiophenylsulfonyl)-1-piperazinyl)phenyl)-2-propanol] | 30 nM | 15 nM | –
10 | CC(O)(c1ccc(N2CCN(S(=O)(=O)c3cccs3)C[C@@H]2CNS(=O)(=O)c2ccccc2)cc1)C(F)(F)F (mixture of isomers) [Example 193, N-(((2S)-4-(2-thiophenylsulfonyl)-1-(4-(2,2,2-trifluoro-1-hydroxy-1-methylethyl)phenyl)-2-piperazinyl)methyl)benzenesulfonamide] | 284 nM | – | EC50 [2, 5]: 374 nM
11 | CC(C)N(C[C@H]1CN(S(=O)(=O)c2cccs2)CCN1c1ccc(C(C)(O)C(F)(F)F)cc1)C(C)C (mixture of isomers) [Example 194, 2-(4-((2S)-2-((bis(1-methylethyl)amino)methyl)-4-(2-thiophenylsulfonyl)-1-piperazinyl)phenyl)-1,1,1-trifluoro-2-propanol] | 205 nM | – | EC50 [2, 5]: 179 nM
12 | CC(=O)N(C[C@H]1CN(S(=O)(=O)c2cccs2)CCN1c1ccc(C(C)(O)C(F)(F)F)cc1)C(C)C (mixture of isomers) [Example 196, N-(1-methylethyl)-N-(((2S)-4-(2-thiophenylsulfonyl)-1-(4-(2,2,2-trifluoro-1-hydroxy-1-methylethyl)phenyl)-2-piperazinyl)methyl)acetamide] | 466 nM | 391 nM | –
13 | CC(C)N(C[C@H]1CN(S(=O)(=O)c2cccs2)CCN1c1ccc(C(C)(O)C(F)(F)F)cc1)S(=O)(=O)c1ccccc1 (mixture of isomers) [Example 197, N-(1-methylethyl)-N-(((2R)-4-(2-thiophenylsulfonyl)-1-(4-(2,2,2-trifluoro-1-hydroxy-1-methylethyl)phenyl)-2-piperazinyl)methyl)benzenesulfonamide] | 215 nM | 80 nM | –
14 | CC(C)N(C[C@H]1CN(S(=O)(=O)c2cccs2)CCN1c1ccc(C(C)(O)C(F)(F)F)cc1)S(=O)(=O)c1cccnc1 (mixture of isomers) [Example 198, N-(1-methylethyl)-N-(((2R)-4-(2-thiophenylsulfonyl)-1-(4-(2,2,2-trifluoro-1-hydroxy-1-methylethyl)phenyl)-2-piperazinyl)methyl)-3-pyridinesulfonamide] | 108 nM | 177 nM | –
15 | CC(O)(c1ccc(N2CCN(S(=O)(=O)c3cccs3)C[C@@H]2CN(C2CC2)S(C)(=O)=O)cc1)C(F)(F)F (mixture of isomers) [Example 200, N-cyclopropyl-N-(((2R)-4-(2-thiophenylsulfonyl)-1-(4-(2,2,2-trifluoro-1-hydroxy-1-methylethyl)phenyl)-2-piperazinyl)methyl)methanesulfonamide] | 26 nM | 39 nM | –
16 | CC(O)(c1ccc(N2CCN(S(=O)(=O)c3cccs3)C[C@@H]2CNc2ccccc2)cc1)C(F)(F)F (mixture of isomers) [Example 203, 1,1,1-trifluoro-2-(4-((2S)-2-((phenylamino)methyl)-4-(2-thiophenylsulfonyl)-1-piperazinyl)phenyl)-2-propanol] | – | – | IC50 ([1]; GK-GKRP IC50 (Binding)): 278 nM; EC50 ([2]; GK-GKRP EC50 (LC MS/MS-2)): 146 nM
17 | CC(O)(c1ccc(N2CCN(S(=O)(=O)c3cccs3)C[C@@H]2CN(c2ccccc2)S(C)(=O)=O)cc1)C(F)(F)F (mixture of isomers) [Example 204, N-phenyl-N-(((2R)-4-(2-thiophenylsulfonyl)-1-(4-(2,2,2-trifluoro-1-hydroxy-1-methylethyl)phenyl)-2-piperazinyl)methyl)methanesulfonamide] | 4 nM | 32 nM | –
18 | CC(O)(c1ccc(N2CCN(S(=O)(=O)c3cccs3)C[C@@H]2CN(C2COC2)C2COC2)cc1)C(F)(F)F (mixture of isomers) [Example 205, 2-(4-((2S)-2-((di-3-oxetanylamino)methyl)-4-(2-thiophenylsulfonyl)-1-piperazinyl)phenyl)-1,1,1-trifluoro-2-propanol] | 435 nM | 480 nM | –
